“Also recorded” adds a separate entry of the source.
Key:
Format in all cases: in vivo, human
[1] = tested on: persons with meteoropathy; experiment: Test 3: meteoropathy symptom questionnaire before and after start of intake
Procedure: The test shown below was conducted to investigate the functions of kaempferol associated with meteoropathy. [table]

athletes = experiment: Test 2: athlete questionnaire (0 to 10) and comments before and on day 30 of intake
Procedure: The following tests were carried out to investigate the functions of kaempferol. [table] [table] In addition to the above score evaluations, an optional evaluation of the mental and physical state after intake of the test sample as compared to that before the intake was obtained in the form of comments.

[2] = tested on: healthy adult men and women; experiment: Test 1: randomized, double-blind, placebo-controlled, crossover comparative test (sleep and autonomic nervous system, Fitbit Charge 4)
Procedure: A randomized, double-blind, placebo-controlled, crossover comparative test as summarized in the table below was conducted to examine the relationship between kaempferol, sleep, and the autonomic nervous system.
The granular foods used in the test were prepared according to the following procedure. Horseradish leaves were extracted twice with 50% aqueous ethanol at 50° C. and concentrated under reduced pressure. The concentrate was purified with resin to obtain a solution. Hemicellulase “Amano” 90 and Lactase F “Amano” (produced by Amano Enzyme, Inc.) were added to the solution to allow the enzyme to act thereon while stirring at 50° C. The resulting reaction liquid was then heated to 80° C. and maintained for 20 minutes to inactivate the enzyme. The resulting treated liquid was then freeze-dried to give an ethanol extract powder. This powder was combined with an equal amount (on a weight basis) of starch and erythritol and mixed into granules. The granules were packed in aluminum pouches in an amount of 116 mg (containing 10 mg of kaempferol) per pouch. The subjects ingested the contents of one pouch at one time (10 mg of kaempferol in total). The food used as a placebo was granules of starch and erythritol.
The sleep score is an index of sleep quality on a scale of 0 to 100, with a score of 90 to 100 indicating very good sleep quality, a score of 80 to 89 indicating good sleep quality, a score of 60 to 79 indicating slightly low sleep quality, and a score of 60 or less indicating low sleep quality. The sleeping heart rate is known to correlate with sleep quality. Specifically, it has been reported that the higher the heart rate during sleep, the less satisfactory the sleep obtained is (i.e., the quality of sleep is low) (see Non-Patent Literature (NPL) 1). […] This is generally consistent with the difference between the average sleeping heart rate in people with good quality sleep and that in people with poor sleep quality (FIG. 3 in NPL 1).
RMSSD is the square root of the mean squared differences of successive adjacent R-R intervals (interval from one QRS wave to the next QRS wave) and is an index of vagal tone intensity. A rise in RMSSD indicates increased parasympathetic activity or decreased sympathetic activity. […] According to the formula shown in FIG. 2 (right), KMP intake is considered to rejuvenate the age of autonomic nervous system function by 16.3 years.
The LF/HF ratio is a ratio of low frequency (LF) to high frequency (HF) power and represents the overall balance between the sympathetic nervous system and the parasympathetic nervous system. A higher LF/HF ratio indicates a state of sympathetic nervous system dominance, whereas a lower LF/HF ratio indicates parasympathetic nervous system dominance. […] According to the formula shown in FIG. 3 (right), KMP intake is considered to rejuvenate the age of autonomic nervous system function by 5.8 years.

[3] = all symptoms, during KMP intake vs before, FIG. 7
[4] = 10 mg KMP once a day, day 30 vs before intake, FIG. 4, FIG. 5
[5] = all subjects (159 athletes), 10 mg KMP once a day, day 30 vs before intake, FIG. 4
[6] = optional comment of a single subject, state after intake of the test sample vs before
[7] = swimmers (50 persons), day 30 vs before intake, FIG. 5
[8] = 10 mg KMP once a day, two weeks, vs placebo, FIG. 1

Structure (SMILES): O=c1c(O)c(-c2ccc(O)cc2)oc2cc(O)cc(O)c12 [KMP, kaempferol]
- Effect on meteoropathy overall ([1]; 10 mg KMP once a day, 4 consecutive weeks): effective in the treatment and improvement of meteoropathy
- Frequency of occurrence of each symptom of meteoropathy ([1]; all 12 symptoms (stiff shoulders and neck, fatigue, lassitude, headache, overall ill health, irritation, depressed mood, inability to think straight, lower back pain, lethargy, anxiety, joint pain), 10 mg KMP once a day, 4 weeks, vs before intake, 393 subjects, FIG. 6): significantly reduces
- Degree of each symptom of meteoropathy (0-10 point scale) ([1]; all 12 symptoms, KMP intake vs before intake, FIG. 8): significantly alleviated
- Duration of each symptom of meteoropathy [1, 3]: significantly reduced duration
- Proportion of no occurrence of the symptom [1, 3]: increased proportion of no occurrence
- Achievement of exercise performance (athletes; [4]): useful
- Fatigue alleviation (athletes; [4]): useful
- Improvement of endurance (improved shortness of breath) (athletes; [4]): useful
- Recovery from fatigue (athletes; [4]): useful
- Ease in sleep (questionnaire score) (athletes; [5]): significant improvement
- Ease in waking up (questionnaire score) (athletes; [5]): significant improvement
- Comments relating to menstruation (athletes; [6]): Menstrual pain has been relieved. Menstrual cycle; also recorded: irregularities has been improved; also recorded: Menstrual pain has been relieved and abdominal; also recorded: Swollen feet before menstruation has been relieved; also recorded: has come naturally; also recorded: returned to normal
- Comments relating to mental state (athletes; [6]): Have more motivation to practice; also recorded: Feel more highly motivated before a competition; also recorded: Feel more positive; also recorded: More mentally stable; also recorded: No longer feel depressed; also recorded: Feel less tired and more motivated to practice; also recorded: Feel better during practice; also recorded: Have become able to run more calmly than usual; also recorded: Feel more comfortable during running; also recorded: Feel more relaxed both during and outside of practice
- Other comments (athletes; [6]): The time taken to get rid of jet lag was reduced; also recorded: The symptoms of seasonal colds were not seen; also recorded: Stools have improved; also recorded: Bowel movements have improved; also recorded: Healing from injuries is faster; also recorded: Healing of fractures is much faster; also recorded: Healing of wounds after tooth extraction is faster; also recorded: Easier body weight loss; also recorded: Easier to control body weight gain; also recorded: Have improved concentration; also recorded: Symptoms of jet lag were alleviated
- Ease in sleep (questionnaire score), improvement in swimmers (athletes; [7]): particularly prominent
- Ease in waking up (questionnaire score), improvement in swimmers (athletes; [7]): particularly prominent
- Reduction of sleeping heart rate on average [2, 8]: 3.5 bpm
- Sleep duration [2, 8]: no significant change
- Sleeping heart rate [2, 8]: significantly reduces
- RMSSD during sleep ([2]; 10 mg KMP once a day, two weeks, vs placebo, FIG. 2 (left)): increase in RMSSD value
- LF/HF ratio during sleep ([2]; 10 mg KMP once a day, two weeks, vs placebo, FIG. 3 (left)): reduces the LF/HF ratio
- Rejuvenation of the age of autonomic nervous system function (from RMSSD vs age formula) ([2]; according to the formula shown in FIG. 2 (right)): 16.3 years
- Rejuvenation of the age of autonomic nervous system function (from LF/HF ratio vs age formula) ([2]; according to the formula shown in FIG. 3 (right)): 5.8 years
- Sleep score ([2]; granular food with 10 mg KMP once a day after breakfast, two weeks, vs placebo, 34 subjects, scale 0 to 100, FIG. 1): significantly improves
